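Compound exposure: 48 hours, 5 concentrations, 96-well plates. At the GI50, growth is halved.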 Calls of active or inactive are those of the source. No stated cut-off is given here; in the data, active = GI50 up to about 1.1 µM and inactive = higher.
Assays:
Assay in all cases: NCI anticancer screen, dose series, 48 h
786-0 = tested on: 786-0
A498 = tested on: A498
A549 = tested on: A549
ACHN = tested on: ACHN
BT-549 = tested on: BT-549
CAKI-1 = tested on: CAKI-1
CCRF-CEM = tested on: CCRF-CEM
COLO 205 = tested on: COLO 205
DU-145 = tested on: DU-145
EKVX = tested on: EKVX
HCC 2998 = tested on: HCC 2998
HCT-116 = tested on: HCT-116
HCT-15 = tested on: HCT-15
HL-60 = tested on: HL-60
HOP-62 = tested on: HOP-62
HOP-92 = tested on: HOP-92
HT-29 = tested on: HT-29
Hs-578T = tested on: Hs-578T
IGROV-1 = tested on: IGROV-1
K562 = tested on: K562
KM12 = tested on: KM12
LOX IMVI = tested on: LOX IMVI
M14 = tested on: M14
MDA-MB-231 = tested on: MDA-MB-231
MDA-MB-435 = tested on: MDA-MB-435
MDA-N = tested on: MDA-N
MOLT-4 = tested on: MOLT-4
Malme-3M = tested on: Malme-3M
NCI-H226 = tested on: NCI-H226
NCI-H23 = tested on: NCI-H23
NCI-H460 = tested on: NCI-H460
NCI-H522 = tested on: NCI-H522
NCI/ADR-RES = tested on: NCI/ADR-RES
OVCAR-3 = tested on: OVCAR-3
OVCAR-4 = tested on: OVCAR-4
OVCAR-5 = tested on: OVCAR-5
OVCAR-8 = tested on: OVCAR-8
PC-3 = tested on: PC-3
RPMI-8226 = tested on: RPMI-8226
RXF 393 = tested on: RXF 393
SF-268 = tested on: SF-268
SF-295 = tested on: SF-295
SF-539 = tested on: SF-539
SK-MEL-28 = tested on: SK-MEL-28
SK-MEL-2 = tested on: SK-MEL-2
SK-MEL-5 = tested on: SK-MEL-5
SK-OV-3 = tested on: SK-OV-3
SN12C = tested on: SN12C
SNB-19 = tested on: SNB-19
SNB-75 = tested on: SNB-75
SR = tested on: SR
SW-620 = tested on: SW-620
T47D = tested on: T47D
TK-10 = tested on: TK-10
U-251 = tested on: U-251
UACC-257 = tested on: UACC-257
UACC-62 = tested on: UACC-62
UO-31 = tested on: UO-31

Cc1sc(C)c2c1C(=O)CC2N (stereo not drawn)
GI50 (786-0): 7.98 µM (inactive)
GI50 (A498): > 100 µM (inactive)
GI50 (A549): 29.3 µM (inactive)
GI50 (ACHN): 16.8 µM (inactive)
GI50 (BT-549): 20 µM (inactive)
GI50 (CAKI-1): 15.1 µM (inactive)
GI50 (CCRF-CEM): 1.04 µM (active)
GI50 (COLO 205): 17.1 µM (inactive)
GI50 (DU-145): 15.9 µM (inactive)
GI50 (EKVX): 44.9 µM (inactive)
GI50 (HCC 2998): 19.3 µM (inactive)
GI50 (HCT-116): 14.5 µM (inactive)
GI50 (HCT-15): 31.3 µM
GI50 (HL-60): 6.64 µM (inactive)
GI50 (HOP-62): > 85.5 µM (inactive)
GI50 (HOP-92): 18.5 µM (inactive)
GI50 (HT-29): 24.9 µM (inactive)
GI50 (Hs-578T): 44.8 µM (inactive)
GI50 (IGROV-1): 34.7 µM (inactive)
GI50 (K562): 4.85 µM (inactive)
GI50 (KM12): 16.4 µM (inactive)
GI50 (LOX IMVI): 13.1 µM (inactive)
GI50 (M14): 14.1 µM (inactive)
GI50 (MDA-MB-231): 22.7 µM (inactive)
GI50 (MDA-MB-435): 20.8 µM (inactive)
GI50 (MDA-N): 21.1 µM (inactive)
GI50 (MOLT-4): 1.58 µM (inactive)
GI50 (Malme-3M): 13.7 µM (inactive)
GI50 (NCI-H226): > 37.8 µM (inactive)
GI50 (NCI-H23): 32.1 µM (inactive)
GI50 (NCI-H460): 29.1 µM (inactive)
GI50 (NCI-H522): 3.3 µM (inactive)
GI50 (NCI/ADR-RES): 50.4 µM (inactive)
GI50 (OVCAR-3): 17.5 µM (inactive)
GI50 (OVCAR-4): 28 µM (inactive)
GI50 (OVCAR-5): > 100 µM (inactive)
GI50 (OVCAR-8): 21.5 µM (inactive)
GI50 (PC-3): 27.4 µM (inactive)
GI50 (RPMI-8226): 2.7 µM (inactive)
GI50 (RXF 393): 16.3 µM (inactive)
GI50 (SF-268): > 40.9 µM (inactive)
GI50 (SF-295): > 100 µM (inactive)
GI50 (SF-539): 3.26 µM (inactive)
GI50 (SK-MEL-28): > 42.7 µM (inactive)
GI50 (SK-MEL-2): > 100 µM (inactive)
GI50 (SK-MEL-5): 46.3 µM (inactive)
GI50 (SK-OV-3): > 76.6 µM (inactive)
GI50 (SN12C): 24.2 µM (inactive)
GI50 (SNB-19): > 94.4 µM (inactive)
GI50 (SNB-75): > 50.1 µM (inactive)
GI50 (SR): 4.27 µM (inactive)
GI50 (SW-620): 6 µM (inactive)
GI50 (T47D): 17.4 µM (inactive)
GI50 (TK-10): 19.1 µM (inactive)
GI50 (U-251): 76.4 µM (inactive)
GI50 (UACC-257): 17.5 µM (inactive)
GI50 (UACC-62): 75.3 µM (inactive)
GI50 (UO-31): 15.6 µM (inactive)

From ChEMBL document CHEMBL1201862, “PubChem BioAssay data set” (2004)
